Test results from US20070161637A1, “Substituted pyridin-2-ylamine analogues” (Neurogen Corporation, priority 2003, published 2007).

These molecules were tested against T1, human capsaicin receptor (Homo sapiens, UniProt Q8NER1) (assay: Calcium mobilization assay, determination of antagonist activity (Example 6)). Conditions: concentration giving 50% decrease in the fluorescence response of cells expressing human capsaicin receptor exposed to capsaicin.
T1 construct: transfected with the pBK-CMV expression construct encoding the full length human capsaicin receptor; expressed in transfected cells; host or cells: HEK293, stably transfected clonal lines, plasmid pBK-CMV
T1 sequence (Q8NER1 whole entry): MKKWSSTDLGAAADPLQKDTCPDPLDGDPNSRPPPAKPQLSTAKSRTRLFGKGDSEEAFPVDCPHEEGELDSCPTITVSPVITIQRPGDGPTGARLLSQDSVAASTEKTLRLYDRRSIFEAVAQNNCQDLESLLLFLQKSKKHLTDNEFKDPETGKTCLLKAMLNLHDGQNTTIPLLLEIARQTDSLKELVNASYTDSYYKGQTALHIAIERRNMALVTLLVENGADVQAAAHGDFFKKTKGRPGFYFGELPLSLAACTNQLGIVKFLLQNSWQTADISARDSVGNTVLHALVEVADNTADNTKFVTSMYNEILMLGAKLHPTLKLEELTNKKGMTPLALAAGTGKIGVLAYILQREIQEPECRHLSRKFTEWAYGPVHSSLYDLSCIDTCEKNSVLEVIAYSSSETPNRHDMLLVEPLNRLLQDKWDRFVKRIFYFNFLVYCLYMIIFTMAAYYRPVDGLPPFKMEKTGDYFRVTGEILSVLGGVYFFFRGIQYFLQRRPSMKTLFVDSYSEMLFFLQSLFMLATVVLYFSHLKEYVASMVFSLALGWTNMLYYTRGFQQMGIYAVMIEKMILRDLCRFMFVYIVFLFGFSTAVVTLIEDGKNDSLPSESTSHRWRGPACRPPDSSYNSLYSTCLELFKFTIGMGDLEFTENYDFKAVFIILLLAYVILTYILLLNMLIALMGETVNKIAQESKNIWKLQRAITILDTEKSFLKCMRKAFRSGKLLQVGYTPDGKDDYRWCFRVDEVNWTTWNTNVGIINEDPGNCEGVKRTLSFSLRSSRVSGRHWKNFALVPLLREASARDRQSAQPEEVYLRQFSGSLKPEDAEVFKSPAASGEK
Assay type: cell-based
Description: A cDNA encoding full length human capsaicin receptor (SEQ ID NO:1, 2 or 3 of U.S. Pat. No. 6,482,611) was subcloned in the plasmid pBK-CMV (Stratagene, La Jolla, Calif.) for recombinant expression in mammalian cells.
Human embryonic kidney (HEK293) cells were transfected with the pBK-CMV expression construct encoding the full length human capsaicin receptor using standard methods. The transfected cells were selected for two weeks in media containing G418 (400 μg/ml) to obtain a pool of stably transfected cells. Independent clones were isolated from this pool by limiting dilution to obtain clonal stable cell lines for use in subsequent experiments.
Cells transfected with expression plasmids (as described in Example 4) and thereby expressing human capsaicin receptor are seeded and grown to 70-90% confluency in FALCON black-walled, clear-bottomed 96-well plates (#3904, BECTON-DICKINSON, Franklin Lakes, N.J.). The culture medium is emptied from the 96 well plates and FLUO-3 AM calcium sensitive dye (Molecular Probes, Eugene, Oreg.) is added to each well (dye solution: 1 mg FLUO-3 AM, 440 μL DMSO and 440 μl 20% pluronic acid in DMSO, diluted 1:250 in Krebs-Ringer HEPES (KRH) buffer (25 mM HEPES, 5 mM KCl, 0.96 mM NaH2PO4, 1 mM MgSO4, 2 mM CaCl2, 5 mM glucose, 1 mM probenecid, pH 7.4), 50 μl diluted solution per well). Plates are covered with aluminum foil and incubated at 37° C. for 1-2 hours in an environment containing 5% CO2. After the incubation, the dye is emptied from the plates, and the cells are washed once with KRH buffer, and resuspended in KRH buffer.
To measure the ability of a test compound to agonize or antagonize a calcium mobilization response in cells expressing capsaicin receptors to capsaicin or other vanilloid agonist, the EC50 of the agonist capsaicin is first determined. An additional 20 μl of KRH buffer and 1 μl DMSO is added to each well of cells, prepared as described above. 100 μl capsaicin in KRH buffer is automatically transferred by the FLIPR instrument to each well. Capsaicin-induced calcium mobilization is monitored using either FLUOROSKAN ASCENT (Labsystems; Franklin, Mass.) or FLIPR (fluorometric imaging plate reader system; Molecular Devices, Sunnyvale, Calif.) instruments. Data obtained between 30 and 60 seconds after agonist application are used to generate an 8-point concentration response curve, with final capsaicin concentrations of 1 nM to 3 μM. […] software (Synergy Software, Reading, Pa.) is used to fit the data to the equation: y=a*(1/(1+(b/x)^c)) to determine the 50% excitatory concentration (EC50) for the response. In this equation, y is the maximum fluorescence signal, x is the concentration of the agonist or antagonist (in this case, capsaicin), a is the Emax, b corresponds to the EC50 value and c is the Hill coefficient. Determination Agonist Activity
Test compounds are dissolved in DMSO, diluted in 20 μl KRH buffer so that the final concentration of test compounds in the assay well is between 1 μM and 5 μM, and added to cells prepared as described above. The 96 well plates containing prepared cells and test compounds are incubated in the dark, at room temperature for 0.5 to 6 hours. It is important that the incubation not continue beyond 6 hours. Just prior to determining the fluorescence response, 100 μl capsaicin in KRH buffer at twice the EC50 concentration determined as described above is automatically added by the FLIPR instrument to each well of the 96 well plate for a final sample volume of 200 μl and a final capsaicin concentration equal to the EC50. The final concentration of test compounds in the assay wells is between 1 μM and 5 μM.

IC50, ≤ 1000 nM:
CC(C)(C)c1ccc(Nc2nc(N)nc(OCc3ccccc3Cl)n2)cc1 [Compound 30, N-(4-tert-Butyl-phenyl)-6-(2-chloro-benzyloxy)-[1,3,5]triazine-2,4-diamine]
CC(C)(C)c1ccc(Nc2nc(N)nc(OCc3ccccc3F)n2)cc1 [Compound 31, N-(4-tert-Butyl-phenyl)-6-(2-fluoro-benzyloxy)-[1,3,5]triazine-2,4-diamine]
COc1ccccc1COc1nc(N)nc(Nc2ccc(C(C)(C)C)cc2)n1 [Compound 32, N-(4-tert-Butyl-phenyl)-6-(2-methoxy-benzyloxy)-[1,3,5]triazine-2,4-diamine]
CC(C)(C)c1ccc(Nc2nc(Cl)nc(NCc3ccccc3Cl)n2)cc1 [Compound 33, N-(4-tert-Butyl-phenyl)-6-chloro-N′-(2-chloro-benzyl)-[1,3,5]triazine-2,4-diamine]
CC(C)(C)c1ccc(Nc2nc(Cl)nc(NCc3ccccc3F)n2)cc1 [Compound 34, N-(4-tert-Butyl-phenyl)-6-chloro-N′-(2-fluoro-benzyl)-[1,3,5]triazine-2,4-diamine]
COc1ccccc1CNc1nc(Cl)nc(Nc2ccc(C(C)(C)C)cc2)n1 [Compound 35, N-(4-tert-Butyl-phenyl)-6-chloro-N′-(2-methoxy-benzyl)-[1,3,5]triazine-2,4-diamine]
CC(C)(C)c1ccc(Nc2nc(Cl)nc(NCc3ccccc3C(F)(F)F)n2)cc1 [Compound 36, N-(4-tert-Butyl-phenyl)-6-chloro-N′-(2-trifluoromethyl-benzyl)-[1,3,5]triazine-2,4-diamine]
CC(C)(C)c1ccc(Nc2nc(N)nc(NCc3ccccc3Cl)n2)cc1 [Compound 37, N-(4-tert-Butyl-phenyl)-N′-(2-chloro-benzyl)-[1,3,5]triazine-2,4,6-triamine]
CCOc1nc(NCc2ccccc2Cl)nc(Nc2ccc(C(C)(C)C)cc2)n1 [Compound 38, N-(4-tert-Butyl-phenyl)-N′-(2-chloro-benzyl)-6-ethoxy-[1,3,5]triazine-2,4-diamine]
COc1nc(NCc2ccccc2Cl)nc(Nc2ccc(C(C)(C)C)cc2)n1 [Compound 39, N-(4-tert-Butyl-phenyl)-N′-(2-chloro-benzyl)-6-methoxy-[1,3,5]triazine-2,4-diamine]
Cc1nc(NCc2ccccc2Cl)nc(Nc2ccc(C(C)(C)C)cc2)n1 [Compound 40, N-(4-tert-Butyl-phenyl)-N′-(2-chloro-benzyl)-6-methyl-[1,3,5]triazine-2,4-diamine]
CNc1nc(NCc2ccccc2Cl)nc(Nc2ccc(C(C)(C)C)cc2)n1 [Compound 41, N-(4-tert-Butyl-phenyl)-N′-(2-chloro-benzyl)-N″-methyl-[1,3,5]triazine-2,4,6-triamine]
CC(C)(C)c1ccc(Nc2cc(NCc3ccccc3Cl)ncn2)cc1 [Compound 42, N-(4-tert-Butyl-phenyl)-N′-(2-chloro-benzyl)-pyrimidine-4,6-diamine]
CC(C)(C)c1ccc(Nc2nc(N)nc(NCc3ccccc3F)n2)cc1 [Compound 43, N-(4-tert-Butyl-phenyl)-N′-(2-fluoro-benzyl)-[1,3,5]triazine-2,4,6-triamine]
CC(C)(C)c1ccc(Nc2cc(NCc3ccccc3F)ncn2)cc1 [Compound 44, N-(4-tert-Butyl-phenyl)-N′-(2-fluoro-benzyl)-pyrimidine-4,6-diamine]
COc1ccccc1CNc1ncnc(Nc2ccc(C(C)(C)C)cc2)n1 [Compound 45, N-(4-tert-Butyl-phenyl)-N′-(2-methoxy-benzyl)-[1,3,5]triazine-2,4-diamine]
COc1ccccc1CNc1nc(N)nc(Nc2ccc(C(C)(C)C)cc2)n1 [Compound 46, N-(4-tert-Butyl-phenyl)-N′-(2-methoxy-benzyl)-[1,3,5]triazine-2,4,6-triamine]
COc1ccccc1CNc1cc(Nc2ccc(C(C)(C)C)cc2)ncn1 [Compound 47, N-(4-tert-Butyl-phenyl)-N′-(2-methoxy-benzyl)-pyrimidine-4,6-diamine]
CC(C)(C)c1ccc(Nc2cc(NCc3ccccc3C(F)(F)F)ncn2)cc1 [Compound 49, N-(4-tert-Butyl-phenyl)-N′-(2-trifluoromethyl-benzyl)-pyrimidine-4,6-diamine]
CC(C)(C)c1ccc(Nc2cc(NCc3cccc(F)c3)ncn2)cc1 [Compound 50, N-(4-tert-Butyl-phenyl)-N′-(3-fluoro-benzyl)-pyrimidine-4,6-diamine]
COc1cccc(CNc2cc(Nc3ccc(C(C)(C)C)cc3)ncn2)c1 [Compound 51, N-(4-tert-Butyl-phenyl)-N′-(3-methoxy-benzyl)-pyrimidine-4,6-diamine]
CC(C)(C)c1ccc(Nc2cc(NCc3ccc(Cl)cc3)ncn2)cc1 [Compound 52, N-(4-tert-Butyl-phenyl)-N′-(4-chloro-benzyl)-pyrimidine-4,6-diamine]
COc1ccc(CNc2cc(Nc3ccc(C(C)(C)C)cc3)ncn2)cc1 [Compound 53, N-(4-tert-Butyl-phenyl)-N′-(4-methoxy-benzyl)-pyrimidine-4,6-diamine]
CC(C)(C)c1ccc(Nc2nc(NCc3ccccc3Cl)nc(NCc3ccccc3Cl)n2)cc1 [Compound 54, N-(4-tert-Butyl-phenyl)-N′,N″-bis-(2-chloro-benzyl)-[1,3,5]triazine-2,4,6-triamine]
COc1ccccc1CNc1nc(NCc2ccccc2OC)nc(Nc2ccc(C(C)(C)C)cc2)n1 [Compound 55, N-(4-tert-Butyl-phenyl)-N′,N″-bis-(2-methoxy-benzyl)-[1,3,5]triazine-2,4,6-triamine]
CC(C)(C)c1ccc(Nc2cc(NCc3ccccn3)ncn2)cc1 [Compound 56, N-(4-tert-Butyl-phenyl)-N′-pyridin-2-ylmethyl-pyrimidine-4,6-diamine]
CC(C)(C)c1ccc(Nc2cc(NCc3cccnc3)ncn2)cc1 [Compound 57, N-(4-tert-Butyl-phenyl)-N′-pyridin-3-ylmethyl-pyrimidine-4,6-diamine]
CC(C)(C)c1ccc(Nc2cc(NCc3ccncc3)ncn2)cc1 [Compound 58, N-(4-tert-Butyl-phenyl)-N′-pyridin-4-ylmethyl-pyrimidine-4,6-diamine]
CCN(CC)c1nc(Nc2ccc(C(F)(F)F)cc2)nc(OCc2ccccc2C(F)(F)F)n1 [Compound 59, N,N-Diethyl-6-(2-trifluoromethyl-benzyloxy)-N′-(4-trifluoromethyl-phenyl)-[1,3,5]triazine-2,4-diamine]
CC(C)(C)c1ccc(Nc2cc(OCc3ccccc3C(F)(F)F)nc(N)n2)cc1 [Compound 60, N4-(4-tert-Butyl-phenyl)-6-(2-trilfuoromethyl-benzyloxy)-pyrimidine-2,4-diamine]
CC(C)(C)c1ccc(Nc2cc(NCc3ccccc3)ncn2)cc1 [Compound 61, N-Benzyl-N′-(4-tert-butyl-phenyl)-pyrimidine-4,6-diamine]
